According to patent US20150238539A1, “COMPOSITION FOR BRAIN-NEURON PROTECTION AND BRAIN-DISEASE PREVENTION, ALLEVIATION OR TREATMENT COMPRISING MUSKRAT MUSK” (priority 2012, published 2015):

Legend:
male ICR mouse [1] = test: Morris water-maze experiment in mice with ethanol-induced memory damage; assay type: in vivo; settings: oral once a day for 4 days, then ethanol; for Mean escape latency: mean of 3 trials a day, cut-off 120 seconds; for Time spent in quadrant: probe test on last day, escape platform removed
Experimental: (§1) As for the experimental animals, 18 to 20 g of 45 male ICR mouse purchased from DAEHAN Animal Experiment Co., Ltd. were used. Specifically, the animals were classified to include five mice per group, then placed in a cage, sufficiently fed with water and foodstuff, and bred in an animal room wherein the temperature (24 ±1° C.), relative humidity (55±5%) and the light-dark (06:00-18:00, light) were controlled during the experiment period. The animals were classified into nine groups of the non-treated group, the ethanol group, the tacrine group and the groups of PREPARATIONS 1 to 6.
The morris water-maze experiment was carried out to measure the degree affecting the recovery of the spatial perception ability and short-term or long-term memory power in experimental animals.
Prior to the morris water-maze experiment, tacrine and the substances of PREPARATIONS 1 to 6 were orally administered to seven groups except for the non-treated group and the ethanol group once a day. On the 4th day, the last day of administration, tacrine and the substances from Preparations 1 to 6 were administered. After 30 minutes, ethanol which undergoes damage to the memory power of the mouse was orally administered to eight groups except for the non-treated group.
In the morris water-maze apparatus, water (temperature: 22±2° C.) was filled by 32 cm within a tank filled with opaque water (diameter 120 cm, height 45 cm) and an escape platform (diameter 10 cm, height 30 cm) was installed in one section of the quadrant located 2 cm below the surface of the water. The powdered skim milk was added to be invisible. The experiment was conducted for five days. The possibility of going to the escape area by chance by changing the positions of acquisition three times a day at three different positions which were minimized. If animals go to the escape area and stay for more than 10 seconds, the time taken until an escape area was found was set to the escape latency. The mean value of the experiments 3 times a day was set to the mean escape latency. In the morris water-maze test, since the test animals remembered and find out the targeting position, the position of the marker was remained constant during the experiment period so that there was no change in the surrounding environment. In the case where the escape platform was not found within 120 seconds, the experiment animal was induced to the escape platform and stayed for 10 seconds, thereby having the position remembered.
On the last day of the experiment, the escape platform was removed. The probe test for measuring the time spent in platform quadrant was carried out.

male ICR mouse [2] = test: Passive avoidance experiment in mice with ethanol-induced memory damage; assay type: in vivo; settings: oral once a day for 4 days; for Time of arrival in the learning test: acquisition trial, ethanol orally 30 minutes after last administration; for Time of arrival in the retention trial: step-through latency 24 hours after learning test, measured up to 300 seconds, then ethanol
Experimental: as §1
The passive avoidance experiment was performed in order to confirm the effects of the compositions of PREPARATIONS 1 to 6 on each memory and learning. This experiment uses the characteristics that animals intend to enter into the dark instinctively. If the animals intend to enter into the dark, an electrical stimulation is given to the animals to prevent from entering the dark. Thereafter, the short-term memory power against the electrical stimulation was measured.
Four days before the passive avoidance experiment, tacrine and substances PREPARATIONS 1 to 6 were orally administered to seven other groups except for the non-treated group and the ethanol group once a day. On day 4, the last day of administration, tacrine and compositions of PREPARATIONS 1 to 6 were orally administered. After 30 minutes, ethanol which undergoes damage to the memory power of mouse was orally administered to eight groups except for the non-treated group.
The passive avoidance experiment was conducted in the apparatus wherein each room having the same structure and 60 dB or less of noise and including a room with light and a room without light (width 20 cm, length 20 cm, height 20 cm) is connected to the guillotin door (Jungdo Bio & Plant Co. Ltd, Seoul, Korea). The mouse was placed in a bright room with shining light and observed for 10 seconds. Subsequently, the door was opened and the mouse was allowed to enter into the dark room. At this time, the time taken to go into a dark room was measured (Learning Test: acquisition trial). If the mouse enters into the dark room, the door is automatically closed. The electrical stimulation of 0.6 mA was given to the mouse through the stainless grid on the bottom for five seconds.
In order to confirm the effect of recovering the cognitive function of the composition the present invention, influencing on the long-term memory after the learning test, the mouse was placed on the bright side of the room after 24 hours. The time taken to go into the dark room (step-through latency time: time of arrival) was measured up to 300 seconds (retention trial).

SMILES	Mean escape latency (male ICR mouse [1])	Time spent in quadrant (male ICR mouse [1])	Time of arrival in the learning test (male ICR mouse [2])	Time of arrival in the retention trial (male ICR mouse [2])
CCO [Ethanol, ethanol]	121 s	18 s	12 s	21 s
Nc1c2c(nc3ccccc13)CCCC2 [Tacrine, tacrine]	56 s	28 s	20 s	85 s
